Data set [1] deals with Influenza A/NWS/33 (H1N1). The arrangement: species or system C57/BL6 mice. The following applies: mouse, in vivo; for survival on day 8: po.
For data set [2] the following is noted: in vivo, po; cited from earlier work.
Data set [3] relates to influenza A or B viruses. The following applies: human, in vivo, po; cited from earlier work.
On the set-up of data set [4]: dose or concentration left out as unconfirmed. The following applies: Phase I, single or multiple oral doses; cited from earlier work.

The structures appear in SMILES notation.

Consider `CC(C)C(=O)c1c(C(C)C)nn2ccccc12` [ibudilast, 1-(2-isopropyl-pyrazolo[1,5-a]pyridine-3-yl)-2-methylpropan-1-one], for which the “survival on day 8” value in data set [1] worked out at 0%.
In data set [1], `CCOC(=O)C1=C[C@@H](OC(CC)CC)[C@H](NC(C)=O)[C@@H](N)C1` [oseltamivir, (3R,4R,5S)-4-acetylamino-5-amino-3(1-ethylpropoxy)-1-cyclohexene-1-carboxylic acid, ethyl ester] gave a survival rate of 40%. In addition, the half-life in data set [2] is 6 to 10 h.
Take `CCC(CC)[C@H](NC(C)=O)[C@@H]1[C@H](O)[C@@H](C(=O)O)C[C@H]1NC(=N)N` [peramivir, (1S,2S,3S,4R)-3-[(1S)-1-Acetamido-2-ethyl-butyl]-4-(diaminomethylideneamino)-2-hydroxy-cyclopentane-1-carboxylic acid]: in data set [3], the adverse effects result is given as “no adverse effects”. The tolerability result in data set [4] is reported as “well-tolerated”.
Take `O=C(Nc1c(Cl)cncc1Cl)c1ccc(OC(F)F)c(OCC2CC2)c1` [roflumilast, 3-(cyclopropylmethoxy)-N-(3,5-dichloropyridin-4-yl)-4-(difluoromethoxy)benzamide]: the “survival on day 8” value in data set [1] worked out at 0%.
Same read-out and setting: to `COc1ccc(C2CNC(=O)C2)cc1OC1CCCC1` (stereo not shown) [rolipram, 4-[3-(cyclopentyloxy)-4-methoxyphenyl]-2-pyrrolidone] belongs 0%.

For orientation: half-life means the time needed for the level to fall by half in the phase considered.
